Read-outs that look alike come from different tables or passages of the source.
Tested on: C. parvum strain UGA1
Test: C. parvum growth inhibition assay (Nluc luminescence in HCT-8 cells)
Type: cell-based, Cryptosporidium parvum
Details: Cryptosporidium parvum; for inhibition at 1 µM / inhibition at 10 µM: HCT-8; for inhibition at 1 µM: read-out: % inh @ 1 uM C. parvum; for inhibition at 10 µM: read-out: % inh @ 10 uM C. parvum; for EC50: HCT-8, 48 h, C. parvum growth inhibition in HCT-8 cells, 48 hours, 6 concentrations 10-0.04 μM
[1] = single point inhibition @ 10 uM
[2] = single point inhibition at 1 uM
[3] = single point inhibition at 10 uM

Row | SMILES | EC50 [µM] | inhibition at 1 µM [2] [%] | inhibition at 10 µM [3] [%] | other results
1 | Cc1cc(-c2cc3cnc(Nc4cccc(-c5nc[nH]n5)c4)cc3[nH]2)cc(N)n1 [Example 150, N-(3-(1H-1,2,4-triazol-3-yl)phenyl)-2-(2-amino-6-methylpyridin-4-yl)-1H-pyrrolo[3,2-c]pyridin-6-amine] | – | – | – | inhibition at 1 µM (single point inhibition @ 1 uM): 0 to 33%; inhibition at 10 µM [1]: 67 to 100%
2 | CCn1c(-c2ccnc(OC)n2)cc2cnc(NC(=O)C3CC3)cc21 [Example 344, N-(1-ethyl-2-(2-methoxypyrimidin-4-yl)-1H-pyrrolo[3,2-c]pyridin-6-yl)cyclopropanecarboxamide] | 0.5 to 1 | – | – | –
3 | COc1nccc(-c2cc3cnc(NC(=O)c4cnn(C(C)C)c4)cc3[nH]2)n1 [Example 177, 1-isopropyl-N-(2-(2-methoxypyrimidin-4-yl)-1H-pyrrolo[3,2-c]pyridin-6-yl)-1H-pyrazole-4-carboxmaide] | – | – | – | inhibition at 1 µM (single point inhibition @ 1 uM): 0 to 33%; inhibition at 10 µM [1]: 67 to 100%
4 | Cc1ccnc(-c2cc3cnc(NC(=O)C4CC4)cc3n2C)c1 [Example 73, N-(1-methyl-2-(4-methylpyridin-2-yl)-1H-pyrrolo[3,2-c]pyridin-6-yl)cyclopropanecarboxamide] | > 1 | – | – | –
5 | Cn1cc(C(=O)Nc2cc3[nH]c(-c4cnc[nH]4)cc3cn2)cn1 [Example 82, N-(2-(1H-imidazol-5-yl)-1H-pyrrolo[3,2-c]pyridin-6-yl)-1-methyl-1H-pyrazole-4-carboxamide] | > 1 | – | – | inhibition at 1 µM (single point inhibition @ 1 uM): 0 to 33%; inhibition at 10 µM [1]: 33 to 66%
6 | COc1ccc(Nc2cc3c(cn2)cc(-c2cnn(C)c2)n3C)c(C)c1 [Example 258, N-(4-methoxy-2-methylphenyl)-1-methyl-2-(1-methyl-1H-pyrazol-4-yl)-1H-pyrrolo[3,2-c]pyridin-6-amine] | – | 0 to 33 | 0 to 33 | –
7 | O=C(Nc1cc2[nH]c(-c3ccncc3)cc2cn1)c1ccccc1 [Example 277, N-(2-(pyridin-4-yl)-1H-pyrrolo[3,2-c]pyridin-6-yl)benzamide] | – | 0 to 33 | 0 to 33 | –
8 | CN(CC(F)(F)F)c1nccc(-c2cc3cnc(NC4CCOCC4)cc3[nH]2)n1 [Example 370, 2-(2-(methyl(2,2,2-trifluoroethyl)amino)pyrimidin-4-yl)-N-(tetrahydro-2H-pyran-4-yl)-1H-pyrrolo[3,2-c]pyridin-6-amine] | 0.5 to 1 | – | – | –
9 | Cn1cc(C(=O)Nc2cc3c(cn2)cc(-c2ccnc(NCC4CC4)n2)n3C)cn1 [Example 159, N-(2-(2-(cyclopropylmethylamino)pyrimidin-4-yl)-1-methyl-1H-pyrrolo[3,2-c]pyridin-6-yl)-1-methyl-1H-pyrazole-4-carboxamide] | – | – | – | inhibition at 1 µM (single point inhibition @ 1 uM): 0 to 33%; inhibition at 10 µM [1]: 67 to 100%
10 | CC(=O)Nc1cc2c(cn1)cc(C#N)n2C [Example 245, N-(2-cyano-1-methyl-1H-pyrrolo[3,2-c]pyridin-6-yl)acetamide] | – | 0 to 33 | 0 to 33 | –
11 | Cn1c(-c2cccnc2)cc2cnc(Nc3cccc(-c4nc[nH]n4)c3)cc21 [Example 275, N-(3-(1H-1,2,4-triazol-3-yl)phenyl)-1-methyl-2-(pyridin-3-yl)-1H-pyrrolo[3,2-c]pyridin-6-amine] | – | 0 to 33 | 0 to 33 | –
12 | CCc1nccc(-c2cc3cnc(NC4CCOCC4)cc3n2C)n1 [Example 387, 2-(2-ethylpyrimidin-4-yl)-1-methyl-N-(tetrahydro-2H-pyran-4-yl)-1H-pyrrolo[3,2-c]pyridin-6-amine] | > 1 | – | – | –
13 | Cn1cc(-c2cc3cnc(NC4CCOCC4)cc3[nH]2)cn1 [Example 354, 2-(1-methyl-1H-pyrazol-4-yl)-N-(tetrahydro-2H-pyran-4-yl)-1H-pyrrolo[3,2-c]pyridin-6-amine] | > 1 | – | – | –
14 | Cc1cc(-c2cc3cnc(NC(=O)[C@H]4C[C@@H](O)C4)cc3[nH]2)ccn1 [Example 194, (1s,3s)-3-hydroxy-N-(2-(2-methypyridin-4-yl)-1H-pyrrolo[3,2-c]pyridin-6-yl)cyclobutanecarboxamide] | – | – | – | inhibition at 1 µM (single point inhibition @ 1 uM): 0 to 33%; inhibition at 10 µM [1]: 67 to 100%
15 | COCCn1cc(Nc2cc3[nH]c(-c4ccncc4)cc3cn2)cn1 [Example 192, N-(1-(2-methoxyethyl)-1H-pyrazol-4-yl)-2-(pyridin-4-yl)-1H-pyrrolo[3,2-c]pyridin-6-amine] | – | – | – | inhibition at 1 µM (single point inhibition @ 1 uM): 33 to 66%; inhibition at 10 µM [1]: 67 to 100%
16 | CCOc1nccc(-c2cc3cnc(NC(=O)c4cn(CCO)nc4C)cc3[nH]2)n1 [Example 233, N-(2-(2-ethoxypyrimidin-4-yl)-1H-pyrrolo[3,2-c]pyridin-6-yl)-1-(2-hydroxyethyl)-3-methyl-1H-pyrazole-4-carboxamide] | – | 0 to 33 | 33 to 66 | –
17 | CCCOc1nccc(-c2cc3cnc(NC(=O)c4cnn(C)c4)cc3[nH]2)n1 [Example 312, 1-methyl-N-(2-(2-propoxypyrimidin-4-yl)-1H-pyrrolo[3,2-c]pyridin-6-yl)-1H-pyrazole-4-carboxamide] | – | 0 to 33 | 0 to 33 | –
18 | CC(Oc1nccc(-c2cc3cnc(NC(=O)c4cnn(C)c4)cc3[nH]2)n1)C(F)(F)F (stereo in doubt) [Example 314, (R)-1-methyl-N-(2-(2-(1,1,1-trifluoropropan-2-yloxy)pyrimidin-4-yl)-1H-pyrrolo[3,2-c]pyridin-6-yl)-1H-pyrazole-4-carboxamide] | – | 0 to 33 | 0 to 33 | –

Row | SMILES | EC50 [µM] | inhibition at 1 µM [2] [%] | inhibition at 10 µM [3] [%] | other results
19 | Cc1cccc(-c2cc3cnc(NC(=O)C4CC4)cc3n2C)n1 [Example 69, N-(1-methyl-2-(6-methylpyridin-2-yl)-1H-pyrrolo[3,2-c]pyridin-6-yl)cyclopropanecarboxamide] | > 1 | – | – | –
20 | N#Cc1cc2cnc(NC(=O)C3CC3)cc2[nH]1 [Example 180, N-(2-cyano-1H-pyrrolo[3,2-c]pyridin-6-yl)cyclopropanecarboxamide] | – | – | – | inhibition at 1 µM (single point inhibition @ 1 uM): 0 to 33%; inhibition at 10 µM [1]: 67 to 100%
21 | Cc1cc(-c2cc3cnc(N)cc3n2C)ncn1 [Example 125, 1-methyl-2-(6-methylpyrimidin-4-y)-1H-pyrrolo[3,2-c]pyridin-6-amine] | > 1 | – | – | –
22 | COc1nccc(-c2cc3cnc(NC(=O)c4cnn(CC5CCOC5)c4)cc3[nH]2)n1 (stereo in doubt) [Example 156, (S)-N-(2-(2-methoxypyrimidin-4-yl)-1H-pyrrolo[3,2-c]pyridin-6-yl)-1-((tetrahydrofuran-3-yl)methyl)-1H-pyrazole-4-carboxamide] | – | – | – | inhibition at 1 µM (single point inhibition @ 1 uM): 0 to 33%; inhibition at 10 µM [1]: 67 to 100%
23 | Cc1cc(-c2cc3cnc(NC4CCCOC4)cc3[nH]2)ccn1 (stereo in doubt) [Example 355, (S)-2-(2-methylpyridin-4-yl)-N-(tetrahydro-2H-pyran-3-yl)-1H-pyrrolo[3,2-c]pyridin-6-amine] | > 1 | – | – | –
24 | COc1cc(-c2cc3cnc(NC(=O)c4cnn(C)c4)cc3[nH]2)ccn1 [Example 286, N-(2-(2-methoxypyridin-4-yl)-1H-pyrrolo[3,2-c]pyridin-6-yl)-1-methyl-1H-pyrazole-4-carboxamide] | – | 0 to 33 | 0 to 33 | –
25 | Cn1cc(-c2cc3cnc(Nc4ccc(C(F)(F)F)cc4)cc3[nH]2)cn1 [Example 222] | – | – | 33 to 66 | –
26 | COCc1cc2cnc(NC(=O)c3cnn(C)c3)cc2[nH]1 [Example 260, N-(2-(methoxymethyl)-1H-pyrrolo[3,2-c]pyridin-6-yl)-1-methyl-1H-pyrazole-4-carboxamide] | – | 0 to 33 | 0 to 33 | –
27 | COc1nccc(-c2cc3cnc(NC(=O)c4ccc(N5CCOCC5)cc4)cc3[nH]2)n1 [Example 320, N-(2-(2-methoxypyrimidin-4-yl)-1H-pyrrolo[3,2-c]pyridin-6-yl)-4-morpholinobenzamide] | – | 0 to 33 | 0 to 33 | –
28 | Cc1cc(-c2cc3cnc(NC(=O)C4CC(C)(O)C4)cc3[nH]2)ccn1 (centres unmarked) [Example 202, 3-hydroxy-3-methyl-N-(2-(2-methylpyridin-4-yl)-1H-pyrrolo[3,2-c]pyridin-6-yl)cyclobutanecarboxamide] | – | 0 to 33 | 67 to 100 | –
29 | Cc1cc(-c2cc3cnc(NC(=O)C(C)O)cc3[nH]2)ccn1 (stereo in doubt) [Example 307, (S)-2-hydroxy-N-(2-(2-methylpyridin-4-yl)-1H-pyrrolo[3,2-c]pyridin-6-yl)propanamide] | – | 0 to 33 | 0 to 33 | –
30 | N#Cc1cc2cnc(Nc3cc(-c4nc[nH]n4)cc(C4CCOCC4)c3)cc2[nH]1 [Example 208, 6-(3-(tetrahydro-2H-pyran-4-yl)-5-(1H-1,2,4-triazol-3-yl)phenylamino)-1H-pyrrolo[3,2-c]pyridine-2-carbonitrile] | – | 0 to 33 | 67 to 100 | –
31 | O=C(Nc1cc2[nH]c(-c3cnc(C(F)(F)F)o3)cc2cn1)C1CC1 [Example 110, N-(2-(2-(trifluoromethyl)oxazol-5-yl)-1H-pyrrolo[3,2-c]pyridin-6-yl)cyclopropanecarboxamide] | > 1 | – | – | –
32 | O=C(Nc1cc2[nH]c(C3CC(F)(F)C3)cc2cn1)C1CC1 [Example 53, N-(2-(3,3-difluorocyclobutyl)-1H-pyrrolo[3,2-c]pyridin-6-yl)cyclopropanecarboxamide] | > 1 | – | – | –
33 | Cc1cc(-c2cc3cnc(NC(=O)c4cc(C(F)(F)F)n(C)n4)cc3[nH]2)ccn1 [Example 294, 1-methyl-N-(2-(2-methylpyridin-4-yl)-1H-pyrrolo[3,2-c]pyridin-6-yl)-5-(trifluoromethyl)-1H-pyrazole-3-carboxamide] | – | 0 to 33 | 0 to 33 | –
34 | Cc1ncc(-c2cc3cnc(NC(=O)C4CC4)cc3[nH]2)s1 [Example 101, N-(2-(2-methylthiazol-5-yl)-1H-pyrrolo[3,2-c]pyridin-6-yl)cyclopropanecarboxamide] | > 1 | – | – | –
35 | Cc1cc(-c2cc3cnc(NC(=O)C4CC4)cc3n2CCN(C)C)ccn1 [Example 333, N-(1-(2-(dimethylamino)ethyl)-2-(2-methylpyridin-4-yl)-1H-pyrrolo[3,2-c]pyridin-6-yl)cyclopropanecarboxamide] | – | 0 to 33 | 0 to 33 | –
